Tests used:
[1] = tested on: MM.1S cells; assay: cells; conditions: for viable cells: FIG. 12D
From the text: MM.1S cells were also transiently transfected using Cell line Nucleofecto kit V, according to the manufacturer's instructions (Amaxa Biosystems, Germany), with vector alone, DN-caspase-8, DN-caspase-9, or DN-FADD and cotransfected with vector containing green fluorescence protein (GFP) alone.
It was next determined whether inhibition of an upstream signaling pathway that leads to caspase-8 activation affects the response to the compound of formula (II) (X=Cl) or Bortezomib. The Fas-associated death domain (FADD) protein is an important part of the deathinducing signaling complexes (DISCs) that assemble upon engagement of TNF receptor family members, such as Fas, resulting in proteolytic processing and autoactivation of pro-caspase-8. Since both the compound of formula (II) (X=Cl) and Bortezomib trigger caspase-8 activation, the role of FADD during this event in MM cells was evaluated using DN-FADD.

[2] = tested on: 20S proteasome in white blood cell (WBC) lysates; assay: Ex vivo 20S proteasome activity in whole blood cells in mice
Protocol: To directly determine whether the compound of formula (II) (X=Cl) inhibits proteasome activity in vivo, the compound of formula (II) (X=Cl) was dissolved in 100% DMSO and serially diluted with 5% Solutol (Solutol® HS15; polyethylene glycol 660 12-hydroxystearate, BASF, Shreveport, La.) yielding a final concentration of 2% DMSO. The vehicle control consisted of 2% DMSO and 98% (5% Solutol® HS15). Male Swiss-Webster mice (five per group, 20-25 grams in weight) were treated at Bolder BioPATH, Inc. (Boulder, Colo.) with various concentrations of the compound either intravenously or orally at a volume of 10 mL/kg. One group of animals was untreated to establish a baseline of proteasome activity. Ninety minutes after administration of the compound, the animals were anesthetized and blood withdrawn by cardiac puncture. Packed whole blood cells were collected by centrifugation, washed with PBS, and frozen on dry ice for determination of ex vivo proteasome activity. Chymotrypsin-like activity of the 20S proteasome in white blood cell (WBC) lysates was determined using the peptide substrate suc-LLVY-AMC. Relative Fluoresence Units (RFU) were normalized using the protein concentrations of the cell lysates. The 20S proteasome activity of the individual mice is shown in FIG. 2 with the horizontal bar representing the average activity. […]

[3] = tested on: MM.1S cells; assay: Mitochondrial and caspase apoptotic signaling in MM cells (flow cytometry, immunoblot); format: cell-based, human; conditions: 7 nM
Protocol: Mitochondria play a critical role in apoptosis induction during stress. See Bossy-Wetzel, E. & Green, D. R. (1999) Mutat Res 434, 243-51 and Chauhan, D. & Anderson, K. C. […] Superoxide (O2^−) production was measured by staining cells with membrane permeable dye dihydroethidium (HE) for the last 15 min. Superoxide anions oxidize HE to fluorescent ethidium, permitting analysis by flow cytometry.
Reprobing the immunoblots with anti-Hsp60 (lower, left panel) and anti-tubulin (lower, right panel) Abs confirms purity of mitochondrial extracts and equal protein loading. Release of mitochondrial apoptogenic proteins cyto-c and Smac/DIABLO induce activation of caspases-9 and -3. […] As a control for equal loading of proteins and purity of mitochondrial fractions, filters were also reprobed with anti-tubulin (lower right panel) and anti-Hsp60 Abs (lower left panel), respectively. Blots are representative of three independent experiments.
Both caspase-9 (mitochondria-dependent) and caspase-8 (mitochondria-independent) are known to proteolytically cleave and activate a common downstream effector capsase-3, resulting in PARP cleavage. […] Total protein lysates were subjected to SDS-PAGE analysis. Immunoblot analysis of the lysates was performed with anti-PARP (upper panel) or anti-caspase-3 (lower panel) Abs. ‘FL’ indicates ‘full length’ and ‘CF’ denotes cleaved fragment.
Immunoblot analysis was performed using antibodies to cytochrome-c, Smac, Caspase-8, -9, or -3 (Cell Signaling, Beverly, Mass.), tubulin (Sigma, St. Louis, Mo.), PARP, Hsp60, or Bax (BD Bioscience Pharmingen, San Diego, Calif.). Blots were developed by enhanced chemiluminesence (ECL; Amersham, Arlington Heights, Ill.).

[4] = target: T1, human erythrocyte-derived 20S proteasome (Homo sapiens, UniProt P28072+P28074+Q99436); assay: In vitro 20S proteasome activity assay; format: biochemical; conditions: Suc-LLVY-AMC, Z-LLE-AMC, Boc-LRR-AMC substrates; FIG. 1
T1 construct: Purified human erythrocyte-derived 20S proteasome were obtained from Biomol; purchased Biomol, Plymouth Meeting, Pa; host or cells: purified from human erythrocytes
Protocol: The chymotrypsin-like activity of the 20S proteasome was measured as described in Stein, R. L., Melandri, F. & Dick, L. (1996) Biochemistry 35, 3899-908 and Lightcap, E. S., McCormack, T. A., Pien, C. […] Purified human erythrocyte-derived 20S proteasome were obtained from Biomol, Plymouth Meeting, Pa. The chymotrypsin-like, caspase-like and trypsin-like activity activities of the 20S proteasome were determined using Suc-LLVY-AMC, Z-LLE-AMC (Boston Biochem, Cambridge, Mass.) and Boc-LRR-AMC (Bachem Bioscience, King of Prussia, Pa.) as peptide substrates, respectively. Fluorescence of the cleaved peptide substrate was measured using a Fluoroskan Ascent 96-well microplate reader (Thermo Electron, Waltham, Mass.). The EC50 values were calculated by Prism (GraphPad Software) using a sigmoidal dose-response, variable slope model. The EC50 values were defined as the drug concentration at which 50% of the maximal relative fluorescence is inhibited.

Which results are given for CC12OC(=O)C1(C(O)C1C=CCCC1)NC(=O)C2CCCl (stereo not shown) [compound of formula (II) (X=Cl)]?
viable cells ([1]; DN-FADD-transfected MM.1S cells): 76%±5.1; effect of caspase-8 blockade on triggered cell death ([1]; IETD-fmk, FIG. 12A): significant decrease in cell death; effect of caspase-9 inhibition on decreased viability ([1]; LEHD-FMK, FIG. 12A): only moderately blocked; IC50 ([1]; MM.1S cells, concentration used for treatment): 7 nM; survival of DN-caspase-8-transfected compared to DN-caspase-9-transfected cells ([1]; treated at IC50, FIG. 12B): markedly increased survival; viable cells ([1]; vector-transfected MM.1S cells): 42%±2.0; effect of caspase-3 inhibition on induced apoptosis ([1]; z-VAD-fmk, FIG. 12A): markedly abrogates; oral activity ([2]; oral administration, mice): orally active; Chymotrypsin-like activity of the 20S proteasome in WBC lysates ([2]; single i.v. or oral administration, 90 minutes after administration, FIG. 2): inhibits chymotrypsin-like activity of 20S proteasomes in white blood cells in a dose-dependent manner; mitochondrial membrane potential (ΔΨm), CMXRos ([3]; 12 h, serum starved MM.1S, FIG. 11A): decreases ΔΨm; Superoxide (O2−) production, dihydroethidium ([3]; 12 h, FIG. 11B): triggers O2^− production; caspase-3 and PARP cleavage ([3]; 24 h, MM.1S or MM.1R, FIG. 11F): triggers caspase-3 and PARP cleavage; mitochondrial versus cytosolic cyto-c and smac ([3]; 24 h, FIG. 11C): triggers a decrease in mitochondrial cyto-c; caspase-9 cleavage ([3]; 24 h, FIG. 11D): induces proteolytic cleavage of caspase-9; caspase-8 activation ([3]; 24 h, FIG. 11E): activates caspase-8; inhibition of chymotrypsin-like, caspase-like and trypsin-like activities of the 20S proteasome [4]: inhibits all three proteasome activities
